Results reported in the supplement of paper PMC10307832.

Tests used:
Assay in all cases: relative viability (nuclei count vs DMSO), 5 days (fraction); higher = more cells survive
[1] = compound: CC1CC(=O)N(C2=CN=C(N=C2N1C3CCCC3)NC4=C(C=C(C=C4)C(=O)NC5CCN(CC5)C)OC)C [NPK76-II-72-1] + CC(=O)c1c(C)c2cnc(Nc3ccc(N4CCNCC4)cn3)nc2n(C2CCCC2)c1=O [Palbociclib] (partner 0.5 µM)
In short: (§1)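 Medians of duplicate plates are given as relative viability. That measure is the nuclei count in treated wells divided by the count in vehicle wells. Counts were taken on 4× images of lung cancer cell lines in 1536-well plates, 5 days after pin-tool dosing the day after seeding with one drug alone or a fixed anchor-drug dose plus five library-drug doses (not always all listed) in √10 steps.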

[2] = compound: CC1CC(=O)N(C2=CN=C(N=C2N1C3CCCC3)NC4=C(C=C(C=C4)C(=O)NC5CCN(CC5)C)OC)C [NPK76-II-72-1] + Cc1nc(NC(=O)N2CCC[C@H]2C(N)=O)sc1-c1ccnc(C(C)(C)C(F)(F)F)c1 [Alpelisib] (partner 2 µM)
In short: as §1

BI-2536 + Pictilisib = compound: CC[C@@H]1C(=O)N(C)c2cnc(Nc3ccc(C(=O)NC4CCN(C)CC4)cc3OC)nc2N1C1CCCC1 [BI-2536] + CS(=O)(=O)N1CCN(Cc2cc3nc(-c4cccc5[nH]ncc45)nc(N4CCOCC4)c3s2)CC1 [Pictilisib] (partner 1 µM)
In short: as §1

BI-2536 + Pemetrexed = compound: CC[C@@H]1C(=O)N(C)c2cnc(Nc3ccc(C(=O)NC4CCN(C)CC4)cc3OC)nc2N1C1CCCC1 [BI-2536] + Nc1nc2[nH]cc(CCc3ccc(C(=O)N[C@@H](CCC(=O)O)C(=O)O)cc3)c2c(=O)[nH]1 [Pemetrexed] (partner 0.2 µM)
In short: as §1

| Cell Line | relative viability ([1]; first compound 0.01 µM) | relative viability ([1]; first compound 0.03162 µM) | relative viability ([1]; first compound 0.1 µM) | relative viability ([1]; first compound 0.3162 µM) | relative viability ([1]; first compound 1 µM) | relative viability ([2]; first compound 0.01 µM) | relative viability ([2]; first compound 0.03162 µM) | relative viability ([2]; first compound 0.1 µM) | relative viability ([2]; first compound 1 µM) | relative viability (BI-2536 + Pictilisib; first compound 0.01 µM) | relative viability (BI-2536 + Pictilisib; first compound 0.03162 µM) | relative viability (BI-2536 + Pictilisib; first compound 0.1 µM) | relative viability (BI-2536 + Pictilisib; first compound 0.3162 µM) | relative viability (BI-2536 + Pictilisib; first compound 1 µM) | relative viability (BI-2536 + Pemetrexed; first compound 0.01 µM) | relative viability (BI-2536 + Pemetrexed; first compound 0.03162 µM) | relative viability (BI-2536 + Pemetrexed; first compound 0.1 µM) | relative viability (BI-2536 + Pemetrexed; first compound 0.3162 µM) | relative viability (BI-2536 + Pemetrexed; first compound 1 µM) | relative viability ([2]; first compound 0.3162 µM) |
| --- | --- | --- | --- | --- | --- | --- | --- | --- | --- | --- | --- | --- | --- | --- | --- | --- | --- | --- | --- | --- |
| LK-2 | 0.624 | 0.636 | 0.668 | 0.653 | 0.565 | 1 | 1.23 | 1.12 | 0.652 | 0.569 | 0.389 | 0.375 | 0.196 | 0.297 | 0.249 | 0.249 | 0.0925 | 0.0896 | 0.1 |  |
| NCI-H2126 | 0.338 | 0.348 | 0.331 | 0.347 | 0.345 | 0.759 | 0.81 | 0.752 | 0.734 | 0.509 | 0.48 | 0.27 | 0.247 | 0.253 | 0.747 | 0.74 | 0.369 | 0.286 | 0.217 | 0.71 |
| NCI-H3122 | 0.183 | 0.18 | 0.179 | 0.194 | 0.213 | 0.709 | 0.724 | 0.789 | 0.776 | 0.55 | 0.555 | 0.153 | 0.23 | 0.201 | 0.212 | 0.171 | 0.159 | 0.129 | 0.121 | 0.838 |
| NCI-H1975 | 0.548 | 0.548 | 0.593 | 0.416 | 0.676 | 0.569 | 0.691 | 0.592 | 0.665 | 0.27 | 0.284 | 0.24 | 0.117 | 0.135 | 0.297 | 0.276 | 0.22 | 0.169 | 0.168 | 0.622 |
| NCI-H1944 | 0.335 | 0.35 | 0.305 | 0.301 | 0.376 | 0.801 | 0.81 | 0.871 | 0.928 | 0.339 | 0.336 | 0.295 | 0.157 | 0.17 | 0.631 | 0.649 | 0.425 | 0.18 | 0.142 | 0.715 |
| LU99A | 0.404 | 0.437 | 0.425 | 0.393 | 0.443 | 0.462 | 0.578 | 0.576 | 0.563 | 0.308 | 0.301 | 0.14 | 0.128 | 0.138 | 0.225 | 0.193 | 0.165 | 0.152 | 0.143 | 0.48 |
| SW 1573 | 0.35 | 0.486 | 0.399 | 0.371 | 0.387 | 0.7 | 0.891 | 0.7 | 0.819 | 0.477 | 0.479 | 0.263 | 0.142 | 0.118 | 0.753 | 0.516 | 0.149 | 0.124 | 0.0813 | 0.764 |
| NCI-H2347 | 0.388 | 0.425 | 0.389 | 0.433 | 0.465 | 0.992 | 1 | 1.07 | 1.11 | 0.471 | 0.523 | 0.596 | 0.463 | 0.32 | 0.437 | 0.437 | 0.38 | 0.365 | 0.344 | 1.07 |
| NCI-H1299 |  |  |  |  |  | 1.09 | 1.07 | 1.03 | 1.06 | 0.708 | 0.351 | 0.154 | 0.0991 | 0.0448 |  |  |  |  |  | 1.05 |
| NCI-H727 | 0.705 | 0.671 | 0.594 | 0.621 | 0.712 | 0.476 | 0.516 | 0.626 | 0.713 | 0.391 | 0.338 | 0.433 | 0.265 | 0.19 |  |  |  |  |  | 0.543 |
| ABC-1 | 0.522 | 0.646 | 0.791 | 0.511 | 0.672 | 0.839 | 0.982 | 1.11 | 1 | 0.81 | 0.609 | 0.214 | 0.31 | 0.243 |  |  |  |  |  | 0.953 |
| NCI-H1650 | 0.314 | 0.428 | 0.458 | 0.31 | 0.407 |  |  |  |  | 0.567 | 0.366 | 0.146 | 0.162 | 0.0901 | 0.383 | 0.297 | 0.288 | 0.166 | 0.136 |  |
| ChaGo-K-1 | 0.871 | 0.891 | 0.892 | 0.925 | 0.945 |  |  |  |  | 0.643 | 0.535 | 0.243 | 0.275 | 0.354 | 0.268 | 0.264 | 0.215 | 0.179 | 0.17 |  |
| NCI-H1648 | 0.23 | 0.269 | 0.24 | 0.266 | 0.279 |  |  |  |  |  |  |  |  |  | 0.878 | 0.511 | 0.41 | 0.293 | 0.265 |  |
| NCI-H596 |  |  |  |  |  | 0.523 | 0.448 | 0.405 | 0.498 | 0.376 | 0.293 | 0.198 | 0.215 | 0.205 | 0.528 | 0.491 | 0.487 | 0.277 | 0.29 | 0.479 |
| NCI-H1563 |  |  |  |  |  | 0.859 | 0.939 | 0.948 | 0.955 | 0.699 | 0.61 | 0.558 | 0.578 | 0.511 | 0.736 | 0.789 | 0.744 | 0.413 | 0.473 | 0.833 |
| A549 |  |  |  |  |  | 0.84 | 0.824 | 0.889 | 0.769 | 0.46 | 0.461 | 0.0515 | 0.0559 | 0.0422 |  |  |  |  |  | 0.716 |
| NCI-H522 | 0.866 | 1.02 | 0.981 |  | 1.1 |  |  |  |  |  |  |  |  |  | 1.1 | 0.977 | 1.03 | 0.342 | 0.288 |  |
| SW 900 | 0.53 | 0.632 | 0.464 | 0.441 | 0.584 |  |  |  |  |  |  |  |  |  | 0.492 | 0.468 | 0.46 | 0.198 | 0.149 |  |
| IA-LM |  |  |  |  |  | 0.895 | 0.851 | 0.657 | 0.705 | 0.346 | 0.264 | 0.0753 | 0.0992 | 0.0622 |  |  |  |  |  | 0.612 |
| EBC-1 |  |  |  |  |  | 0.927 | 0.931 | 0.828 | 0.906 | 0.35 | 0.232 | 0.147 | 0.158 | 0.119 |  |  |  |  |  | 0.836 |
